Experimental findings from publication PMC8534003, “The Chemokine-Based Peptide, CXCL9(74-103), Inhibits Angiogenesis by Blocking Heparan Sulfate Proteoglycan-Mediated Signaling of Multiple Endothelial Growth Factors” (Cancers, 2021) are described below.

The subject of the assay is heparan sulfate (HS) / VEGF165. The assay can be described thus: ELISA-like GAG binding assay, competition with VEGF165 for HS binding. As to conditions: HS 25 µg/mL, pH 7.2, 37 °C, 2 h, n = 5. Also noted: species or system human. On the procedure: The ability of the CXCL9-derived peptides to compete with VEGF165 for HS binding was assessed in an ELISA-like GAG binding assay. First, the GAG binding plates (Galen Laboratory Supplies, North Haven, CT, USA) were coated with 25 µg/mL HS (Iduron, Alderley Edge, UK) in standard assay buffer (SAB) [100 mM NaCl, 50 mM sodium acetate, 0.2% (v/v) Tween® 20 in ultrapure water, pH 7.2] at room temperature overnight. The plates were washed with SAB and blocked with blocking buffer [SAB supplemented with 0.2% (w/v) gelatin] at 37 °C for 1 h to prevent nonspecific binding. Then, dilutions of VEGF165 and the peptides, CXCL9(74-103) or CXCL9(86-103), were added and allowed to interact at 37 °C for 2 h. Unbound material was removed through washing and biotinylated polyclonal goat anti-human VEGF165 antibody (PeproTech) in blocking buffer was added to interact with HS-bound VEGF165 at 37 °C for 1 h. Following additional washing steps, detection was performed with streptavidin-horseradish peroxidase (HRP) (R&D Systems) in blocking buffer at 37 °C for 30 min and conversion of 3,3’,5,5’-tetramethylbenzidine (TMB) to a colorimetric signal in the presence of 0.015% (v/v) H2O2. The reaction was stopped by the addition of H2SO4 and the absorbance was measured at 450 nm. All incubation steps were performed in the dark.
For orientation: ELISA stands for enzyme-linked immunosorbent assay.

For the sequence KKVLKVRKSQRSRQKKTT [CXCL9(86-103)], the “inhibition of VEGF165 binding to HS” value is given as “≈ 20%” (30-fold molar excess of peptide over VEGF165) and 40% (300-fold molar excess of peptide over VEGF165).
